Converted amounts (≈) assume the structure as drawn.
Columns and labels:
A549 cells = experiment: cells; assay type: cell-based, Human; conditions: 24 h exposure, WST assay; for IC50: Homo sapiens, read-out: IC50 (half inhibitory concentration by cell viability assay)
Procedure: Human adenocarcinomic alveolar epithelial (A549) cells were obtained from the Korea Cell Line Bank (Seoul, Korea). Cells were grown in RPMI 1640 medium (Thermo Fisher Scientific, Waltham, MA, USA), containing 10% heat-inactivated fetal bovine serum (Thermo Fisher Scientific, Waltham, MA, USA) and 1% penicillin-streptomycin (Thermo Fisher Scientific, Waltham, MA, USA) under standard cell culture conditions (37 °C, 5% CO2, and 90% humidity).
A549 cells (1 × 10^4 cells) were incubated in 96-well plates overnight, and various concentrations (1, 10, 100, 1000, and 5000 μg/mL) of the eight selected chemicals were added to the cell culture medium. After 24 h of incubation, cell morphology was observed by optical microscopy, and cell viability was evaluated using EZ-Cytox kit (DoGenBio, Seoul, Korea) by quantifying purple formazan crystals. The membrane integrity was examined using an EZ-lactate dehydrogenase (LDH) kit (DoGenBio, Seoul, Korea) to measure the LDH level released from the cytosol into the culture medium. Absorbance was measured using a microplate reader (Tecan, Salzburg, Austria) at a wavelength of 450 nm.

rat [1] = test system: rat; set-up: method as in earlier work; conditions: 1 h; cited from earlier work
rat [2] = test system: rat; set-up: method as in earlier work; conditions: cited from earlier work
rabbit = test system: rabbit; set-up: method as in earlier work; conditions: cited from earlier work

Structure (SMILES): N#CNC(=N)N [CG, Cyanoguanidine]
- IC50 (A549 cells): > 5000 µg/mL

Structure (SMILES): N=C(N)N.N=C(N)N.O=C(O)O [GC, Guanidine carbonate]
- IC50 (half inhibitory concentration by cell viability assay) (A549 cells): 1822 µg/mL

Structure (SMILES): Cl.N=C(N)N [GH, Guanidine monohydrochloride]
- IC50 (half inhibitory concentration by cell viability assay) (A549 cells): 2373 µg/mL

Structure (SMILES): N=C(N)N.O=[N+]([O-])O [GN, Guanidine mononitrate]
- IC50 (half inhibitory concentration by cell viability assay) (A549 cells): 3417 µg/mL

Structure (SMILES): N=C(N)N.NS(=O)(=O)O [GS, Guanidine sulfamate]
- IC50 (half inhibitory concentration by cell viability assay) (A549 cells): 2722 µg/mL

Structure (SMILES): CN(C)C(=N)N(C)C [TMG, 1,1,3,3-Tetramethylguanidine]
- IC50 (A549 cells): 1090 µg/mL (≈ 9.47 mM)

Structure (SMILES): CCCCCCCCCCCCNC(=N)N [dodine, dodecylguanidine acetate]
- Inhalation toxicity LC50 (rat [1]): 1.05 µg/mL
- Acute oral toxicity LD50 (rat [2]): 1931 mg/kg
- Dermal toxicity LD50 (rabbit): > 2000 mg/kg

— publication PMC7560342, “In Vitro and In Vivo Evaluation of the Toxic Effects of Dodecylguanidine Hydrochloride” (Toxics, 2020)
